In US20090098145A1, “METHODS AND COMPOSITIONS FOR TREATING OPHTHALMIC CONDITIONS VIA MODULATION OF MEGALIN ACTIVITY” (Sirion Therapeutics, Inc., priority 2006, published 2009):

How the values were obtained:
[1] = in vivo; cited from earlier work
[2] = tested on: megalin; experiment: Megalin protein level in mouse eyecup membrane fractions by immunoblot; type: in vivo; details: MPR-treated mice compared to age-matched wild-type and abcr knockout mice; two immunoreactive bands
Method: FIG. 12. Illustrates megalin protein level in the eye cup from mice with different serum RBP-retinol levels. LDL receptors function to uptake RBP-retinol into RPE. RBP knockout mouse and MPR-treated mouse have lower serum RBP-retinol level. Expression of megalin in eyecup tissues from these mice were examined by immunoblot. Membrane fractions of mouse eyecups were prepared from wild-type mouse (WT), RBP knockout mouse (RBP−/−), ABCR null (abcr−/−) and MPR-treated mice (MPR). Two immunoreactive bands were detected (indicated by white arrows in the figure).
Preparation of Megalin-enriched Membranes from Whole Tissue—Sucrose density centrifugation was used to separate the membranous constituents from kidney, retina and RPE-eyecup (RPE plus choroid and sclera) samples. Following dissection, tissue samples were homogenized in a buffer containing 0.25 M sucrose (pH 7.5). The homogenates were centrifuged at 27,000×g for 20 min. The supernatant fraction was discarded and the resulting pellet (P1) was homogenized in a buffer containing 0.5% CHAPS. […]
Immunoblot Analyses—Protein samples which were used for immunoblot analyses were resuspended in SDS loading buffer. […] The membrane was washed four times, developed with ChemiGlow West Substrate (Alpha Innotech, San Leandro, Calif.) and then visualized by a luminescence imager (Fluor Chem from Alpha Innotech).

[3] = target: VLDL receptor (Homo sapiens, UniProt P98155); details: cited from earlier work
[4] = tested on: human RPE cells; experiment: Uptake of Alexa Fluor 488-labelled RBP* and IRBP* by RPE cells with and without RAP (fluorescence microscopy, retinyl esters by HPLC); type: cell-based
Method: FIG. 13. Illustrates uptake of RBP- and IRBP-retinol into human RPE. Holo-RBP and IRBP were covalently labeled with a fluorescent probe (Alexa Fluor 488). The labeled proteins (RBP* and IRBP*) were added to either the basal (RBP*) or apical (IRBP*) compartments of the RPE cell culture system. Following a 1 hour incubation at 37° C., the media were removed, the cells were extensively washed and the tissues samples analyzed by fluorescence microscopy.
FIG. 14. Illustrates that RAP inhibits basal uptake of RBP-retinol and apical uptake of IRBP-retinol. Uptake of IRBP* and RBP* by RPE cells was monitored before (panels A and B, respectively) and after (panels D and E, respectively) treatment with the LDL receptor antagonist, RAP. […] To ensure that retinol was also taken into the RPE cells, the cells were washed, collected and analyzed for retinoid content by HPLC. Uptake of retinol into RPE cells results in rapid esterification resulting in retinyl ester formation.

[5] = target: LRP (Homo sapiens, UniProt Q07954); details: cited from earlier work
[6] = tested on: human RPE cells; experiment: Uptake of RBP-retinol in human RPE cell cultures after antibody or RAP blocking (HPLC of intracellular atRE and atROL); type: cell-based; details: RAP added to basal chamber, 2 hours at 4° C.; RBP-retinol (10 μM) in basal media; vs pre-immune rabbit IgG
[7] = target: megalin (Homo sapiens, UniProt P98164); details: cited from earlier work
Chain of megalin (Homo sapiens, UniProt P98164) (P98164 26-4655, species assumed): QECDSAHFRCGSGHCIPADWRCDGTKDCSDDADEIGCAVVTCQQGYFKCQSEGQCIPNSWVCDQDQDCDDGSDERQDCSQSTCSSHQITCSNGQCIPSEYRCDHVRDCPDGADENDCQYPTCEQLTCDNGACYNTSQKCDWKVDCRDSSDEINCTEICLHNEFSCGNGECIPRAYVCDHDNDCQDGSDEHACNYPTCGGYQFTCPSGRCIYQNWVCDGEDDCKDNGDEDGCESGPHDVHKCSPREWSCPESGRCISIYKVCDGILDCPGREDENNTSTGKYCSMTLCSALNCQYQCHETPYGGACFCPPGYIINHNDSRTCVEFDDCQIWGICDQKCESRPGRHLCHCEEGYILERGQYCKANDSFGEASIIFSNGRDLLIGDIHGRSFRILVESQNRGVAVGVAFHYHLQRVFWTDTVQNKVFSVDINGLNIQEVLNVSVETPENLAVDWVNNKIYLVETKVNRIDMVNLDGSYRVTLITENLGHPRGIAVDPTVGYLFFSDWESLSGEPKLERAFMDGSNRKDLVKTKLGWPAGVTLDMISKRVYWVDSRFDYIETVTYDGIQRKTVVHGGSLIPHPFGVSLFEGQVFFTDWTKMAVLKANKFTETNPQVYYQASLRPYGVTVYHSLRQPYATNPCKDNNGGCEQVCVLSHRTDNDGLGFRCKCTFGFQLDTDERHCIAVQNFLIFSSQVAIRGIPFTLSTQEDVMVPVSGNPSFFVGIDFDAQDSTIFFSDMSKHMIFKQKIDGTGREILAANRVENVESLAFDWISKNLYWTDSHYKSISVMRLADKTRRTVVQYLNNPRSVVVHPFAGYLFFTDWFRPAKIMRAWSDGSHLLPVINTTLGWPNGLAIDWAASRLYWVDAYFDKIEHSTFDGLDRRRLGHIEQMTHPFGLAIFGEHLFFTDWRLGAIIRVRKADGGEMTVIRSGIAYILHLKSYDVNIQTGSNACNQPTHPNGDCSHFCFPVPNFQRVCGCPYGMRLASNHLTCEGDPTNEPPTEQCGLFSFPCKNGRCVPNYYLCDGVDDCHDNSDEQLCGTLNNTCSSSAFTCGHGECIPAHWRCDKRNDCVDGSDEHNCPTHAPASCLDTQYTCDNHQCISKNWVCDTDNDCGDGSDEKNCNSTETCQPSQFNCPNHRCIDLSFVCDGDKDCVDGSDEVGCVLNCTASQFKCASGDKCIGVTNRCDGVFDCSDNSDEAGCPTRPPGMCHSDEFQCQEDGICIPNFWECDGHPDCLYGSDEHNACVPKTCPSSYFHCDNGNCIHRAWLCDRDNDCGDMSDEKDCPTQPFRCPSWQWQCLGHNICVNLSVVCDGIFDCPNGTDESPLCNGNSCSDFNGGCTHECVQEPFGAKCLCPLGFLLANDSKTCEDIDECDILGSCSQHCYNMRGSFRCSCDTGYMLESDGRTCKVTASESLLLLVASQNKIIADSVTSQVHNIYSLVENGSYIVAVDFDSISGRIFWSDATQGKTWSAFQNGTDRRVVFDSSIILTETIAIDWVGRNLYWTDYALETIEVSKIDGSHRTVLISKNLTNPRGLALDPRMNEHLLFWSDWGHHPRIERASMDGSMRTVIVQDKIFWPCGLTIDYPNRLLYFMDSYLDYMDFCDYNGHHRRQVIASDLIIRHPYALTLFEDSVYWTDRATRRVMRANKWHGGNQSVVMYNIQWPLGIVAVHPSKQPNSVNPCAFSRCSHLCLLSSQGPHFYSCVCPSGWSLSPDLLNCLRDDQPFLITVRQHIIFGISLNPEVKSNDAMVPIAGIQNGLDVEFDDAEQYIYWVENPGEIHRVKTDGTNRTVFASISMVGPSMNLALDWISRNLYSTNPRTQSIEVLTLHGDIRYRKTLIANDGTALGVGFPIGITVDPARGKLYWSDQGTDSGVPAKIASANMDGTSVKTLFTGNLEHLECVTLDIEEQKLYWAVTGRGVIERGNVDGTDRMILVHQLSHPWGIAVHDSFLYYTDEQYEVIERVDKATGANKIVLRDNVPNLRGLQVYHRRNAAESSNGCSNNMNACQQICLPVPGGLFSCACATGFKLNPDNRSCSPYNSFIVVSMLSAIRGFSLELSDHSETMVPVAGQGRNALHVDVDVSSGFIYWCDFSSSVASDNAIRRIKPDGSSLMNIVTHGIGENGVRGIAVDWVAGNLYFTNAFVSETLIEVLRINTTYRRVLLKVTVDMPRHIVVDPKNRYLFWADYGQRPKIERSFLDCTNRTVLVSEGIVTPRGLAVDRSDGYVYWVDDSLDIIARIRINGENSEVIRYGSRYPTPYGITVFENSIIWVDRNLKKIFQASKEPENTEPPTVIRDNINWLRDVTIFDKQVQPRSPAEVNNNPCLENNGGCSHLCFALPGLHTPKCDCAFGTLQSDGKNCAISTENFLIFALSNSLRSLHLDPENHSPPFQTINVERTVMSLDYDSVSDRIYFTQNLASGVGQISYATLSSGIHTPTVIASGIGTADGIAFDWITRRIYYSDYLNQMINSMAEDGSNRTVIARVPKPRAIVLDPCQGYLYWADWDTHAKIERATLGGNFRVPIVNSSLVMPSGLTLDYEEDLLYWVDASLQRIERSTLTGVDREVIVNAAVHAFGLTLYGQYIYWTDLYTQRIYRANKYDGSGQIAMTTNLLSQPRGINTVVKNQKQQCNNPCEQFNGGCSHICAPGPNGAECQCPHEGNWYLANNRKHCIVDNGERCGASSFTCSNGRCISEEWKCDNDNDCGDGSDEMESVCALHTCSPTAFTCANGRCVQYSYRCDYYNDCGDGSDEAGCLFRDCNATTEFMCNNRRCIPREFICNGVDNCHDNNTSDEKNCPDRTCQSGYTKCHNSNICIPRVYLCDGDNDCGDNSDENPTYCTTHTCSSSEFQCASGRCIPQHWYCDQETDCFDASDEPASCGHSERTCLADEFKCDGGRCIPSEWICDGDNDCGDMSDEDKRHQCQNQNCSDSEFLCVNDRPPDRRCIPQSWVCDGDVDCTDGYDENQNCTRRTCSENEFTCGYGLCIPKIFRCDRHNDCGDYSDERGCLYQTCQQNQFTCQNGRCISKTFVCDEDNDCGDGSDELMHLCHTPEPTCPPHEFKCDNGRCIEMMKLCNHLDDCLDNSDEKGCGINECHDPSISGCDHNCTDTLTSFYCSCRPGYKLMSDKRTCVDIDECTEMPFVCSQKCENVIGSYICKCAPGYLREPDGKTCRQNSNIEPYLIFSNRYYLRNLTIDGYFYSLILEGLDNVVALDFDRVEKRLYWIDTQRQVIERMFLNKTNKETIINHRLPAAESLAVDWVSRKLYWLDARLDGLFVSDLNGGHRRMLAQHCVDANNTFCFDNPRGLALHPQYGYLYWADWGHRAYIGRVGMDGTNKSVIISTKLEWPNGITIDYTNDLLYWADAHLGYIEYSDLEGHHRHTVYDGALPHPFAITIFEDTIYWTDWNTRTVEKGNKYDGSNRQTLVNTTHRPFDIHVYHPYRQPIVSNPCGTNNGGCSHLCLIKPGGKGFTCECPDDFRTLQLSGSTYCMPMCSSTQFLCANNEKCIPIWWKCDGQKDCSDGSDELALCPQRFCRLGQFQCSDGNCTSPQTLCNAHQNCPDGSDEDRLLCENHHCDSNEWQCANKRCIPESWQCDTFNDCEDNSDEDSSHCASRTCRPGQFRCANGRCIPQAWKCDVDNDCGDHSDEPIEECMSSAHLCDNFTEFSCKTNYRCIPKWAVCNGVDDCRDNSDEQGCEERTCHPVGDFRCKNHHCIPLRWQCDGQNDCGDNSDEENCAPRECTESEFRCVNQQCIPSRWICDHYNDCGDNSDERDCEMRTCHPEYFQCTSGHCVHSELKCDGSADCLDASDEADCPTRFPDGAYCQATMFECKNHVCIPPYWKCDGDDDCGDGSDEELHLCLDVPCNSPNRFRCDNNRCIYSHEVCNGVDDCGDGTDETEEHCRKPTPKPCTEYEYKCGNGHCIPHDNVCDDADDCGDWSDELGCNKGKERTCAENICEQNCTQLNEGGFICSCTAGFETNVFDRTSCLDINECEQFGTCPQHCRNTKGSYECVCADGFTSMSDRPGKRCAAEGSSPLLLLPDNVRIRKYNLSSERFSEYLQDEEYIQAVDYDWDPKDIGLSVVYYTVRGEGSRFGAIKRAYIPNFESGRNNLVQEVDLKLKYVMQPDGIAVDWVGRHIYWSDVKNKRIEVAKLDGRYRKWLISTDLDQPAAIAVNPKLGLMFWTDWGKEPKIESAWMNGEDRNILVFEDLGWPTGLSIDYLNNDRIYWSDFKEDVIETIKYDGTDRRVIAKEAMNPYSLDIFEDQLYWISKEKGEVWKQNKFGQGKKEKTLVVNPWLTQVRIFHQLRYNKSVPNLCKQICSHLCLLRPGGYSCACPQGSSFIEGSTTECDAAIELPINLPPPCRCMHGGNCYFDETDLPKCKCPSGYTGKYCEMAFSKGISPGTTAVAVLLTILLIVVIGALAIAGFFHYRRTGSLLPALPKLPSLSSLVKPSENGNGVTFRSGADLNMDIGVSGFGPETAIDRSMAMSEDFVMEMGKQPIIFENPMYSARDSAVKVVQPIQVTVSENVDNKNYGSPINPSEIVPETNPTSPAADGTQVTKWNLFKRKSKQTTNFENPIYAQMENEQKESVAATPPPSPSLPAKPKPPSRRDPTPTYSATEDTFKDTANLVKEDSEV

[8] = target: LDL receptor (Homo sapiens, UniProt P01130); details: cited from earlier work
[9] = target: gp330 (Rattus norvegicus, UniProt P98158); details: cited from earlier work
[10] = target: LDL receptors (on human RPE cells); experiment: cell-based or functional assay
[11] = RAP treatment, fluorescence microscopy

For `COc1ccc(NC(=O)\C=C(C)/C=C/C=C(C)\C=C\C2=C(C)CCCC2(C)C)cc1` (stereo in doubt) [MPR, 4-methoxyphenylretinamide], the “retinol and RBP levels in serum” value [1] is given as “reduce” and the “expression of megalin-immunoreactive proteins in eyecup” value [2] is given as “reduced expression”.
For “RAP: 39 kDa receptor-associated protein, chaperone and universal ligand binding antagonist of LDL receptor gene family members”, the Kd [3] is given as 0.7 nM, the “reduction in retinol uptake as measured by retinyl ester content” value ([4]; RAP pre-treatment, retinyl esters by HPLC) is given as ~50% and the “apical uptake of IRBP*” value [4, 11] is given as “completely suppressed”. For the same compound, the “basal uptake of RBP*” value [4, 11] was “completely suppressed”, the Kd [5] was 4 nM and the “inhibition of RBP-retinol uptake by RAP” value [6] was 47%. For the same compound, the “binding sites occupied on the receptor protein megalin” value [7] was “two”, the Kd [8] was 500 nM and the Kd [9] was 8 nM.
For gentamicin [reference compound], the “molecules bound per megalin protein” value [7] is listed as 60-100.
For “receptor-associated protein (RAP) obtained from Oxford Biomedical Research”, the inhibition of basal RBP-retinol uptake in human RPE cultures (HPLC of intracellular atRE and atROL) after RAP pre-treatment [10] was 47% and the reduction in retinol uptake as measured by retinyl ester content (HPLC) after RAP pre-treatment [10] was 50%.
